pEC50: −log10 of the molar value. Where two headings read alike, the source gives them in different places. Where only a bound is given, the exact number is not on record here.

One may read the pEC50 as −log10 of the EC50, conventionally taken in molar units.

The target in this assay is T1, delF508-CFTR (Homo sapiens, UniProt P13569, DEL508-508).
T1 construct: endogenous in cells; host or cells: CFBE41o- human CF bronchial epithelial cells (delF508 homozygous)
Kind of assay: SPQ halide-sensitive fluorescence dye assay for rescue of halide efflux (8-point concentration-response). The following applies: for pEC50: read-out: SPQ EC50; for potency and efficacy compared with VX-809 in SPQ assay: versus VX-809. Type of assay: cell-based. As to the method:
The method of profiling can include detecting the rescue of halide efflux from a cell. The step of detecting a rescue of halide efflux from the cell can be monitored using the halide quenched dye 6-methoxy-N-(3-sulfopropyl)-quinolinium (SPQ, Molecular Probes Inc., Eugene, Oreg.). In this method, cells are treated with a compound as described herein for a period of time (e.g., 48 hours). The rescue or correction of halide efflux is then detected using the SPQ assay with the halide dye. […] Optionally, the halide efflux is chloride efflux. The method of screening can further comprise performing the method with multiple concentrations of the compound.
The compounds were initially subjected to the SPQ halide-sensitive fluorescence dye profiling assay for rescue or correction of membrane chloride ion permeability or transport with an 8-point concentration-response curve. The EC50 values for the compounds described herein were determined using SPQ (Table 1). The ΔSPQ value was calculated by determining the difference between the maximum and minimum SPQ values for the compounds.
To perform the SPQ high throughput screening assay, CFBE41o-cells were seeded into 96-well microtiter plates and were loaded with the fluorescent halide-sensitive dye, SPQ, in serum-containing culture medium. Certain wells were loaded with known positive control corrector molecules, including the industry standard Vertex 809 (VX-809; Vertex Pharmaceuticals, Cambridge, Mass.) at 3 μM, which is the maximally effective profiling dose for VX-809. The test compounds were loaded into wells and were tested in triplicate wells at a 10 μM dose and incubated over 48 hours at room temperature. During the 48 hour period, SPQ was absorbed. Plates were washed in a sodium chloride (NaCl) based Ringer and read once over two minutes to set the baseline SPQ fluorescence activity. Then, NaCl was replaced by sodium nitrate (NaNO3) based Ringer. The plates were read twice over four minutes. The primary high throughput screen (HTS) data were analyzed to detect any function of rescued delF508-CFTR under basal conditions. The plate was read up to two times to complete the SPQ HTS assay.

T1 sequence (P13569 with tags, fused parts or gaps DEL508-508): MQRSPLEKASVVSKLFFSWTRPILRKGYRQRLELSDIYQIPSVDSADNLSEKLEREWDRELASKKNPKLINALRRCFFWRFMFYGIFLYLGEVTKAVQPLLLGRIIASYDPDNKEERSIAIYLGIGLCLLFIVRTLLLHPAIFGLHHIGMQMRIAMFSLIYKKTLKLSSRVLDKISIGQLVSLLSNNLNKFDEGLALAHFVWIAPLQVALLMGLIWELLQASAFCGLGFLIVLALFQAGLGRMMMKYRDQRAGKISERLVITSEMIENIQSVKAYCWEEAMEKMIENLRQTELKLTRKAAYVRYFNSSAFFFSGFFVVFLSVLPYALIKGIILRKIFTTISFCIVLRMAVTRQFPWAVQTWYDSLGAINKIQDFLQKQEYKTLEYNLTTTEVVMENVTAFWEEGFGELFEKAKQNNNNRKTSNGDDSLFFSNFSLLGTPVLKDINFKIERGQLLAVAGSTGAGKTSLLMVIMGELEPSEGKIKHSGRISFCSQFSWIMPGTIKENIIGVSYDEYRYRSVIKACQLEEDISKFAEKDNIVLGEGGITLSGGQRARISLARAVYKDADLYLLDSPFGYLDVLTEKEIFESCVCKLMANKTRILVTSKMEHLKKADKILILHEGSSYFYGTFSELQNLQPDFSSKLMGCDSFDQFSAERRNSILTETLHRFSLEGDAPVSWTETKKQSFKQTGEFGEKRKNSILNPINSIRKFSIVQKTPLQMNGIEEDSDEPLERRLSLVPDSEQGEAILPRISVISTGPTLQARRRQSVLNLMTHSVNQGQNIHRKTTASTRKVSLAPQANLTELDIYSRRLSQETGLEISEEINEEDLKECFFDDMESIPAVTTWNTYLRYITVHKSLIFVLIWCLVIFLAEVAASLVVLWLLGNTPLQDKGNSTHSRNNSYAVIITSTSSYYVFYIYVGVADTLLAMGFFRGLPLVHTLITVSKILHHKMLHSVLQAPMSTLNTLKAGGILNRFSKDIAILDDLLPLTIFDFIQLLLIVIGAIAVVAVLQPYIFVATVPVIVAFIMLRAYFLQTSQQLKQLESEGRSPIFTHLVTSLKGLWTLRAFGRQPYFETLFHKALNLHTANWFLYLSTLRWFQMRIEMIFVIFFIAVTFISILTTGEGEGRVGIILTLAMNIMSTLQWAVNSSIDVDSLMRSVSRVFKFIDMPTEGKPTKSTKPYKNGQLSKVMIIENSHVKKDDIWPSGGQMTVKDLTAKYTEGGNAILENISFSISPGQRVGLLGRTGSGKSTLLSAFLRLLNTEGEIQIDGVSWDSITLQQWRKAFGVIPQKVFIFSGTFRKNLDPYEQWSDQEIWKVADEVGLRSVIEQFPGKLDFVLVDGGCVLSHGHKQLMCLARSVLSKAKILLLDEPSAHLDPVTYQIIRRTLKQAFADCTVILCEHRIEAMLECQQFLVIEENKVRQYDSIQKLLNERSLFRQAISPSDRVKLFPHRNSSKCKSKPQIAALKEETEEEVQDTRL

For `CCCCn1c(=O)c2c(nc3n(CCN4CCOCC4)c(C)c(C)n23)n(C)c1=O` [Compound I-51], where the note is “CFBE41o- cells, 48 h”, the “ΔSPQ (difference between maximum and minimum SPQ values)” value amounted to 9639 RFU; the pEC50 was < 4.52.
On the same counts, the results for `C/C=C/Cn1c(=O)c2c(nc3n(Cc4ccco4)c(C)cn23)n(C)c1=O` [Compound I-52] are 6282 RFU and < 4.52.
The matching figures for `C/C=C/Cn1c(=O)c2c(nc3n2CCN3Cc2ccco2)n(C)c1=O` [Compound I-53]: 6050 RFU and 4.96.
The matching figures for `CCn1c(=O)c2c(nc3n2CCN3Cc2ccco2)n(C)c1=O` [Compound I-54]: 3397 RFU and < 4.52.
In the case of `CC(C)CCn1c(=O)c2c(nc3n2CCN3Cc2ccco2)n(C)c1=O` [Compound I-55], under “CFBE41o- cells, 48 h”, the “ΔSPQ (difference between maximum and minimum SPQ values)” value worked out at 4315 RFU; the pEC50 is < 4.52.
Consider `C/C=C/Cn1c(=O)c2c(nc3n(C(C)CC)c(C)c(C)n23)n(C)c1=O` (stereo not drawn) [Compound I-56], for which the “potency and efficacy compared with VX-809 in SPQ assay” value is “superior potency and efficacy to VX-809”. Besides, where the note is “CFBE41o- cells, 48 h”, the “ΔSPQ (difference between maximum and minimum SPQ values)” value came to 2183 RFU; the pEC50 was 6.70.
Consider `CCn1c(=O)c2c(nc3n(-c4ccccc4C)c(C)c(C)n23)n(C)c1=O` [Compound I-57], for which, where the note is “CFBE41o- cells, 48 h”, the “ΔSPQ (difference between maximum and minimum SPQ values)” value is 4000 RFU; the pEC50 is 5.10.
On the same counts, the results for `CCC(C)n1c(C)c(C)n2c3c(=O)n(CC)c(=O)n(C)c3nc12` (stereo not drawn) [Compound I-58] are 3361 RFU and 5.08.
Take `Cn1c(=O)n(Cc2ccccc2)c(=O)c2c1nc1oc(C(C)(C)C)cn12` [Compound II-2]: the “potency and efficacy compared with VX-809 in SPQ assay” value was “superior potency and efficacy to VX-809”. Also, where the note is “CFBE41o- cells, 48 h”, the “ΔSPQ (difference between maximum and minimum SPQ values)” value is reported as 13312 RFU; the negative logarithm of the EC50 (pEC50) is 4.98.
With `CCn1c(=O)c2c(nc3oc(C(C)(C)C)cn32)n(C)c1=O` [Compound II-3], the “potency and efficacy compared with VX-809 in SPQ assay” value is “superior potency and efficacy to VX-809”. Besides, under “CFBE41o- cells, 48 h”, the “ΔSPQ (difference between maximum and minimum SPQ values)” value amounted to 3935 RFU; the negative-log EC50 (pEC50) was 5.07. Also, where the note is “Trial 2”, the ΔSPQ result is on record as “(Trial 2: 4413) RFU” and the pEC50 is 4.90.
On to `C=CCn1c(Oc2ccc(Br)cc2)nc2c1c(=O)n(C)c(=O)n2C` [Compound III-1], for which, where the note is “CFBE41o- cells, 48 h”, the “ΔSPQ (difference between maximum and minimum SPQ values)” value is given as 8353 RFU; the pEC50 is 4.95.
Take `Cn1c(=O)c2[nH]c(N3CCN(c4ccccc4O)CC3)nc2n(C)c1=O` [Compound III-2]: the “potency and efficacy compared with VX-809 in SPQ assay” value was “superior potency and efficacy to VX-809”. For the setting “CFBE41o- cells, 48 h”, the “ΔSPQ (difference between maximum and minimum SPQ values)” value came to 9814 RFU; the pEC50 was 5.44.
As for `CCCN1N=C(C)Cn2c1nc1c2c(=O)n(CC(C)C)c(=O)n1C` [Compound V-1], for the setting “CFBE41o- cells, 48 h”, the “ΔSPQ (difference between maximum and minimum SPQ values)” value was found to be 12233 RFU; the negative logarithm of the EC50 (pEC50) was 4.77.
On the same counts, the results for `C=C(C)CN1N=C(C)Cn2c1nc1c2c(=O)n(C/C=C/C)c(=O)n1C` [Compound V-2] are 10602 RFU and 4.77.
With `CCCn1c(=O)c2c(nc3n2C(C)C(C)=NN3CC(C)C)n(C)c1=O` (stereo not drawn) [Compound V-3], the “potency and efficacy compared with VX-809 in SPQ assay” value is “superior potency and efficacy to VX-809”. Where the note is “CFBE41o- cells, 48 h”, the “ΔSPQ (difference between maximum and minimum SPQ values)” value is 7753 RFU; the negative-log EC50 (pEC50) was 5.40.
For the compound `CCCCn1c(=O)c2c(nc3n2CC(C)=NN3CCC)n(C)c1=O` [Compound V-4], the “potency and efficacy compared with VX-809 in SPQ assay” value is “superior potency and efficacy to VX-809”. Also, under “CFBE41o- cells, 48 h”, the “ΔSPQ (difference between maximum and minimum SPQ values)” value is reported as 12028 RFU; the negative logarithm of the EC50 (pEC50) is 5.15.
Consider `C=CCn1c(=O)c2c(nc3n2CC(C(C)(C)C)=NN3CC)n(C)c1=O` [Compound V-5], for which, for the setting “CFBE41o- cells, 48 h”, the “ΔSPQ (difference between maximum and minimum SPQ values)” value came to 9200 RFU; the pEC50 is 5.10.

The record behind these values is patent publication US9546176B2, “Small molecule bicyclic and tricyclic CFTR correctors” (DISCOVERYBIOMED, INC., priority 2012, dated 2017).
